Assay [1] has as its target T1, Dihydroorotate dehydrogenase (quinone), mitochondrial (Homo sapiens, UniProt Q02127). In words: Inhibition of human DHODH at 10 uM using dihydroorotate substrate by DCIP assay relative to control.
Assay [2] addresses T1, Dihydroorotate dehydrogenase (quinone), mitochondrial. In words: Inhibition of human DHODH using dihydroorotate substrate by DCIP assay.

Bounds are passed on as bounds.

By inhibition is commonly meant the percentage by which the read-out fell short of the control. A high value points to a strong effect. By IC50 is commonly meant the midpoint of a concentration-inhibition curve. Read a high IC50 as weaker potency.

T1 sequence (Q02127 whole entry): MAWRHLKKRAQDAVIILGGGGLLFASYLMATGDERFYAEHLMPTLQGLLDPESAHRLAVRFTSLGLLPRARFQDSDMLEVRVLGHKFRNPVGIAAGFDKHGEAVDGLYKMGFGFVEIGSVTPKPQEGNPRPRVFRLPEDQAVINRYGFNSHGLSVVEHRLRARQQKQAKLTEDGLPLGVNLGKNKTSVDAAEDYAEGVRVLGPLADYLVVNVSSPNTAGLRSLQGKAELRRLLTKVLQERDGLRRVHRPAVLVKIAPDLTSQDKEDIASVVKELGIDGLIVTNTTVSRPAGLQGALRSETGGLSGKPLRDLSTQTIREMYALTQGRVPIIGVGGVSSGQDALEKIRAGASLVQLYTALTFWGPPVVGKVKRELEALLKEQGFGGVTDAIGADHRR

In assay [1], `COC(=O)/C(C#N)=C1\SCCC(=O)N1c1ccccc1F` yielded an inhibition of 15.7%. Also, the IC50 in assay [2] is over 10 µM.
As for `COC(=O)/C(C#N)=C1\SCC(=O)N1c1ccc(OC)cc1F`, the inhibition in assay [1] is 40.4%. In assay [2], this compound returned an IC50 of over 10 µM.
With `COC(=O)/C(C#N)=C1\SCC(=O)N1c1cccc(Cl)c1`, the inhibition in assay [1] worked out at 56.9%. The IC50 in assay [2] was 8.51 µM.
On to `CCCOC(=O)/C(C#N)=C1\SCC(=O)N1c1ccccc1F`, for which, in assay [1], the inhibition turned out to be 33.5%. The IC50 in assay [2] is over 10 µM.
Consider `COC(=O)/C(C#N)=C1\SCC(=O)N1c1ccc(Br)cc1`, for which the inhibition in assay [1] worked out at 69%. This compound yielded an IC50 in assay [2] of 2.68 µM.
The like results for `COC(=O)/C(C#N)=C1\SCC(=O)N1c1ccccc1F` were, in that order, 34.9% and over 10 µM.
The like results for `COC(=O)/C(C#N)=C1\SCC(=O)N1c1ccnc(Cl)c1` were, in that order, 45.4% and over 10 µM.
`COC(=O)/C(C#N)=C1\SCC(=O)N1c1cccc2ccccc12` showed an inhibition in assay [1] of 21.9%. In addition, the IC50 in assay [2] is over 10 µM.
In assay [1], `COC(=O)/C(C#N)=C1\SCC(=O)N1c1ccc(C(F)(F)F)cc1` displayed an inhibition of 74.4%. In addition, in assay [2], half-maximal inhibition (IC50) required 3.03 µM.
Consider `COC(=O)/C(C#N)=C1\SCC(=O)N1c1ccc(C(C)(C)C)cc1`, for which the inhibition in assay [1] is 79.1%.
On to `COC(=O)/C(C#N)=C1\SCC(=O)N1c1cccc(Cl)n1`, for which the inhibition in assay [1] stood at 43.7%. In addition, in assay [2], the IC50 is over 10 µM.
`COC(=O)/C(C#N)=C1\SCC(=O)N1c1ccc([N+](=O)[O-])cc1` came in with an inhibition in assay [1] of 62.9%. The IC50 in assay [2] is 4.41 µM.
`CCOC(=O)C(C(=O)OCC)=C1SCC(=O)N1c1ccccc1F` registered an inhibition in assay [1] of 8.71%. In assay [2], this compound yielded an IC50 of over 10 µM.
In assay [1], `N#C/C(C(=O)O)=C1/SCC(=O)N1c1ccccc1F` gave an inhibition of 14.9%. Further, in assay [2], the IC50 was over 10 µM.
On to `COC(=O)/C(C#N)=C1\SCC(=O)N1c1cccc(F)c1`, for which, in assay [1], the inhibition is 34.1%. Further, the IC50 in assay [2] was over 10 µM.
On the same counts, the results for `O=C1CSC(=S)N1c1ccc(C(F)(F)F)cc1` are 25.6% and over 10 µM.
The like results for `COC(=O)/C(C#N)=C1\SCC(=O)N1c1ccccc1I` were, in that order, 18.4% and over 10 µM.
Consider `COC(=O)/C(C#N)=C1\SCC(=O)N1c1ccccc1Cl`, for which, in assay [1], the inhibition was found to be 40%. In assay [2], this compound registered an IC50 of over 10 µM.
Turning to `COC(=O)/C(C#N)=C1\SCC(=O)N1c1ccc(OC)cc1`, the inhibition in assay [1] turned out to be 52.5%. In assay [2], the midpoint of inhibition, the IC50, lay at 9.45 µM.
Turning to `COC(=O)/C(C#N)=C1\SCC(=O)N1c1ccc2ccccc2c1`, in assay [1], the inhibition came out at 80.3%.
`CCOC(=O)/C(C#N)=C1\SCC(=O)N1c1ccccc1F` returned an inhibition in assay [1] of 38.2%. Also, the IC50 in assay [2] was over 10 µM.
`N#C/C(C(N)=O)=C1/SCC(=O)N1c1ccccc1F`: the inhibition in assay [1] came out at 11.8%. The IC50 in assay [2] was over 10 µM.
Consider `COC(=O)/C(C#N)=C1\SCCN1c1ccccc1F`, for which the inhibition in assay [1] turned out to be 11.1%. Moreover, the IC50 in assay [2] is over 10 µM.
For `CCCCOC(=O)/C(C#N)=C1\SCC(=O)N1c1ccccc1F`, the inhibition in assay [1] was found to be 28.8%. The compound further yielded an IC50 in assay [2] of over 10 µM.
For the compound `COC(=O)/C(C#N)=C1\SCC(=O)N1c1ccc(C(=O)O)cc1`, in assay [1], the inhibition amounted to 15.1%. This compound also registered an IC50 in assay [2] of over 10 µM.
The like results for `CC(C)(C)OC(=O)/C(C#N)=C1\SCC(=O)N1c1ccccc1F` were, in that order, 33.9% and over 10 µM.
In assay [1], `COC(=O)C(C(=O)OC)=C1SCC(=O)N1c1ccccc1F` displayed an inhibition of 4.27%. Further, the IC50 in assay [2] is over 10 µM.
Regarding `COC(=O)/C(C#N)=C1\SCC(=O)N1c1ccc(F)cc1`, the inhibition in assay [1] amounted to 49.4%. It took 10.6 µM to reach half-maximal inhibition in assay [2] (IC50).

(Values after ChEMBL document CHEMBL4261511, “Synthesis, structure-activity relationship and binding mode analysis of 4-thiazolidinone derivatives as novel inhibitors of human dihydroorotate dehydrogenase” (Medchemcomm, 2017).)
